Results published in patent US20140081017A1, “Histone Deacetylase Inhibitors for Enhancing Activity of Antifungal Agents” (METHYLGENE INC., priority 2012, published 2014).
In brackets after ≈: the same amount, converted by molar mass. Where two headings read alike, the source gives them in different places.

Columns and labels:
[1] = system: Candida parapsilosis; assay: Minimal Inhibitory Concentration (MIC) assay, broth microdilution per CLSI; assay type: cell-based; settings: Lodderomyces parapsilosis, read-out: Minimum Inhibitory Concentrations against Yeast Isolates, Candida parapsilosis;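 also: two read times 24 hr and 48 hr of incubation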
Procedure, shortened: (§1)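 CLSI broth microdilution in RPMI with 0.165 M MOPS, pH 7.0, inoculum from 0.5 McFarland suspension diluted 1:100; compounds in DMSO. Incubation at 35°C for about 24-48 hr; MIC is lowest concentration without visible growth, fluconazole at prominent decrease in growth.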

[2] = system: Candida glabrata; assay: as above; assay type: cell-based; settings: Nakaseomyces glabratus, read-out: Minimum Inhibitory Concentrations against Yeast Isolates, Candida glabrata;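 also: two read times 24 hr and 48 hr of incubation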
Procedure, shortened: as §1

[3] = system: Candida albicans; assay: as above; assay type: cell-based; settings: Candida albicans, read-out: Minimum Inhibitory Concentrations against Yeast Isolates, Candida albicans;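 also: two read times 24 hr and 48 hr of incubation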
Procedure, shortened: as §1

[4] = system: Candida parapsilosis; settings: 24 hr; range not explained; cited from earlier work
[5] = system: C. glabrata; assay: Checkerboard FIC assay in combination with fluconazole (MIC alone and in combination, FICI); assay type: cell-based, Candida glabrata; settings: for FICI of combination resulting in fluconazole MIC of: 2 ug/mL / FICI of combination resulting in fluconazole MIC of: 4 ug/mL / FICI of combination resulting in fluconazole MIC of: 8 ug/mL: FICI calculated using a fluconazole MIC of 16 μg/mL; for FICI of combination resulting in fluconazole MIC of: 2 ug/mL (value in parenthesis) / FICI of combination resulting in fluconazole MIC of: 4 ug/mL (value in parenthesis) / FICI of combination resulting in fluconazole MIC of: 8 ug/mL (value in parenthesis): FICI using a fluconazole MIC of 128 μg/mL; for MIC: Nakaseomyces glabratus; for Concentration of Methylgene compound to synergize fluconazole MIC to 2 ug/mL / Concentration of Methylgene compound to synergize fluconazole MIC to 4 ug/mL / Concentration of Methylgene compound to synergize fluconazole MIC to 8 ug/mL: in combination with fluconazole; for Concentration of Methylgene compound to synergize fluconazole MIC to 2 ug/mL: fluconazole MIC lowered to 2 ug/mL; for Concentration of Methylgene compound to synergize fluconazole MIC to 4 ug/mL: fluconazole MIC lowered to 4 ug/mL; for Concentration of Methylgene compound to synergize fluconazole MIC to 8 ug/mL: fluconazole MIC lowered to 8 ug/mL
Procedure, shortened: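 C. glabrata was tested by CLSI broth microdilution checkerboard, crossing 2-fold dilutions of compound with 2-fold dilutions of fluconazole. The medium was RPMI with 0.165 M MOPS at pH 7.0, inoculated from a 0.5 McFarland suspension diluted 1:100, then incubated about 48 h at 35 °C. Single-agent MICs gave the FIC and FICI values.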

[6] = 24 hr reading (first value of cell 24 hr/48 hr)
[7] = 48 hr reading (second value of cell 24 hr/48 hr)
[8] = MIC of the example compound alone against C. glabrata in the checkerboard assay, approximately 48 hr, read-out: Methylgene MIC
[9] = test compound alone, C. glabrata, approx. 48 hr at 35° C., read-out: Compound MIC

SMILES	MIC [1, 6] [µg/mL]	MIC [1, 7] [µg/mL]	MIC [2, 6] [µg/mL]	MIC [2, 7] [µg/mL]	MIC [3, 6] [µg/mL]	MIC [3, 7] [µg/mL]	MIC range in parentheses below the comparator's MIC, Candida parapsilosis [4] [µg/mL]	FICI of combination resulting in fluconazole MIC of: 2 ug/mL ([5]; C. glabrata)	FICI of combination resulting in fluconazole MIC of: 4 ug/mL ([5]; C. glabrata)	FICI of combination resulting in fluconazole MIC of: 8 ug/mL ([5]; C. glabrata)	FICI of combination resulting in fluconazole MIC of: 2 ug/mL (value in parenthesis) ([5]; C. glabrata)	FICI of combination resulting in fluconazole MIC of: 4 ug/mL (value in parenthesis) ([5]; C. glabrata)	FICI of combination resulting in fluconazole MIC of: 8 ug/mL (value in parenthesis) ([5]; C. glabrata)	MIC [5, 8] [µg/mL]	MIC [5, 9] [µg/mL]	Concentration of Methylgene compound to synergize fluconazole MIC to 2 ug/mL ([5]; C. glabrata) [µg/mL]	Concentration of Methylgene compound to synergize fluconazole MIC to 4 ug/mL ([5]; C. glabrata) [µg/mL]	Concentration of Methylgene compound to synergize fluconazole MIC to 8 ug/mL ([5]; C. glabrata) [µg/mL]
CC[C@H](C)C[C@H](C)CCCCCCCCC(=O)N[C@H]1C[C@@H](O)[C@@H](NCCN)NC(=O)[C@@H]2[C@@H](O)CCN2C(=O)[C@H]([C@H](O)CCN)NC(=O)[C@H]([C@H](O)[C@@H](O)c2ccc(O)cc2)NC(=O)[C@@H]2C[C@@H](O)CN2C(=O)[C@H]([C@@H](C)O)NC1=O [Caspofungin, reference compound]	0.5 (≈ 0.457 µM)	0.5 (≈ 0.457 µM)	0.12 (≈ 0.11 µM)	0.12 (≈ 0.11 µM)	0.06 (≈ 0.0549 µM)	0.06 (≈ 0.0549 µM)	0.25 to 1											
CC(C(=O)NO)c1ccc(CCC(O)Cc2ccccc2)cc1 (centres unmarked) [Example 58, N-hydroxy-2-(4-(3-hydroxy-4-phenylbutyl)phenyl)propanamide]	> 64	> 64	8 (≈ 25.5 µM)	64 (≈ 204 µM)	> 64	> 64		0.188	0.250	0.375	0.141	0.156	0.188	> 16	> 16	4	4	4
O=C(Cc1ccc(C(O)CCCc2ccccc2)cc1)NO (centres unmarked) [Example 59, N-hydroxy-2-(4-(1-hydroxy-4-phenylbutyl)phenyl)acetamide]	> 64	> 64	16 (≈ 53.4 µM)	64 (≈ 214 µM)	> 64	> 64		0.313	0.375	0.375	0.266	0.281	0.188	> 16	> 16	8	8	4
